Source: patent publication US9617256B2 (priority 2007, dated 2017)
In brackets after ≈: the same amount, converted by molar mass. Read-outs that look alike come from different tables or passages of the source.

Key:
AECO001 (ATCC25922) = assay: MIC broth microdilution, AECO001; assay type: cell-based, E. coli; settings: Escherichia coli
Description: (§1) Bacterial isolates were cultivated from −70° C. frozen stocks by overnight passages at 35° C. in ambient air on Mueller-Hinton agar (Beckton Dickinson, Franklin Lakes, N.J.). Clinical isolates tested were obtained from various geographically diverse hospitals in the US and abroad (Focus Diagnostics, Herndon, Va. and JMI, North Liberty, Iowa). Quality control strains were from the American Type Culture Collection (ATCC; Rockville, Md.). Additional primary panel strains were generated using standard molecular biology techniques.
(§2) Minimum Inhibitory Concentrations (MICs) were determined by the broth microdilution method in accordance with the Clinical and Laboratory Standards Institute (CLSI) guidelines. In brief, organism suspensions were adjusted to a 0.5 McFarland standard to yield a final inoculum between 3×10^5 and 7×10^5 colony-forming units (CFU)/mL. Drug dilutions and inocula were made in sterile, cation adjusted Mueller-Hinton Broth (Beckton Dickinson). An inoculum volume of 100 μL was added to wells containing 100 μL of broth with 2-fold serial dilutions of drug. All inoculated microdilution trays were incubated in ambient air at 35° C. for 18-24 hours. […] Performance of the assay was monitored by the use of laboratory quality-control strains and levofloxacin, a compound with a defined MIC spectrum, in accordance with CLSI guidelines.
(§3) *AECO001 is ATCC25922, AECO063 is ATCC25922 bearing an acrAB mutation, APAE001 is ATCC27853, APAE006 is a strain of P. aeruginosa in which all efflux pumps are inactivated, APAE006+PMBN indicates MICs with the indicated strain in the presence of 8 micrograms per milliliter of polymyxin B nonapeptide, AABA1060 is a clinical isolate of Acinetobacter baumannii, ASAU001 is a laboratory strain of S. aureus (ATCC29213).

[1] = system: AECO063 (ATCC25922 bearing an acrAB mutation); assay: microbe, parasite or virus in culture; assay type: cell-based, E. coli; settings: Escherichia coli, ATCC25922, read-out: MIC AECO063
Description: as §1, §2, §3

APAE001 (ATCC27853) = assay: MIC broth microdilution, APAE001; assay type: cell-based, P. aeruginosa; settings: Pseudomonas aeruginosa, ATCC27853, read-out: MIC APAE001, APAE001 (ATCC27853)
Description: as §1, §2, §3

[2] = system: APAE006 (strain of P. aeruginosa in which all efflux pumps are inactivated); assay: microbe, parasite or virus in culture; assay type: cell-based; settings: Pseudomonas aeruginosa, read-out: MIC APAE006, APAE006, all efflux pumps inactivated
Description: as §1, §2, §3

[3] = system: APAE006 in the presence of 8 micrograms per milliliter of polymyxin B nonapeptide; assay type: cell-based, P. aeruginosa; settings: APAE006 with 8 micrograms per milliliter polymyxin B nonapeptide
Description: as §1, §2, §3

[4] = system: AABA1060 (clinical isolate of Acinetobacter baumannii); assay: MIC broth microdilution, AABA1060; assay type: cell-based; settings: Acinetobacter baumannii, read-out: MIC AABA1060
Description: as §1, §2, §3

[5] = system: ASAU001 (laboratory strain of S. aureus, ATCC29213); assay: MIC broth microdilution, ASAU001; assay type: cell-based; settings: Staphylococcus aureus, ATCC29213, read-out: MIC ASAU001
Description: as §1, §2, §3

[6] = ATCC25922, read-out: MIC AECO001
[7] = ATCC25922, read-out: MIC AECO001 HSA AGP

## O=C(NC(C(=O)NO)C1(O)CC1)c1ccc(C#Cc2ccc(CN3CCOCC3)cc2)cc1 (stereo not shown) [Example 137-24]
AECO001 (ATCC25922); [6]
  MIC: < 2 µg/mL
AECO001 (ATCC25922); [7]
  MIC: 2 to 16 µg/mL (≈ 4.45 to 35.6 µM)
[1]
  MIC: < 2 µg/mL
APAE001 (ATCC27853)
  MIC: 2 to 16 µg/mL (≈ 4.45 to 35.6 µM)
[2]
  MIC: < 2 µg/mL
[3]
  MIC APAE006 + PMBN: A (MIC's of 2.0 μg/mL or less = A)
[4]
  MIC: 2 to 16 µg/mL (≈ 4.45 to 35.6 µM)
[5]
  MIC: 16 to 64 µg/mL (≈ 35.6 to 142 µM)

## C[C@@H](N)[C@H](NC(=O)c1ccc(C#CC#Cc2cnc(N)s2)cc1)C(=O)NO [Example 88-17]
AECO001 (ATCC25922); [6]
  MIC: < 2 µg/mL
AECO001 (ATCC25922); [7]
  MIC: 16 to 64 µg/mL (≈ 41.7 to 167 µM)
[1]
  MIC: < 2 µg/mL
APAE001 (ATCC27853)
  MIC: < 2 µg/mL
[2]
  MIC: < 2 µg/mL
[3]
  MIC APAE006 + PMBN: A (MIC's of 2.0 μg/mL or less = A)
[4]
  MIC: 2 to 16 µg/mL (≈ 5.22 to 41.7 µM)
[5]
  MIC: 16 to 64 µg/mL (≈ 41.7 to 167 µM)

## C[C@@H](NC(=O)CNC1CC1)[C@H](NC(=O)c1ccc(C#Cc2ccccc2)cc1)C(=O)NO [Example 132-2]
AECO001 (ATCC25922); [6]
  MIC: < 2 µg/mL
AECO001 (ATCC25922); [7]
  MIC: 2 to 16 µg/mL (≈ 4.6 to 36.8 µM)
[1]
  MIC: < 2 µg/mL
APAE001 (ATCC27853)
  MIC: 2 to 16 µg/mL (≈ 4.6 to 36.8 µM)
[2]
  MIC: < 2 µg/mL
[3]
  MIC APAE006 + PMBN: A (MIC's of 2.0 μg/mL or less = A)
[4]
  MIC: 16 to 64 µg/mL (≈ 36.8 to 147 µM)
[5]
  MIC: 16 to 64 µg/mL (≈ 36.8 to 147 µM)

## C[C@@H](O)[C@H](NC(=O)c1ccc(/C=C/C#Cc2cccc(F)c2)cc1)C(=O)NO [Example 137-14]
AECO001 (ATCC25922); [6]
  MIC: < 2 µg/mL
AECO001 (ATCC25922); [7]
  MIC: 16 to 64 µg/mL (≈ 41.8 to 167 µM)
[1]
  MIC: < 2 µg/mL
APAE001 (ATCC27853)
  MIC: 2 to 16 µg/mL (≈ 5.23 to 41.8 µM)
[2]
  MIC: < 2 µg/mL
[3]
  MIC APAE006 + PMBN: A (MIC's of 2.0 μg/mL or less = A)
[4]
  MIC: 2 to 16 µg/mL (≈ 5.23 to 41.8 µM)
[5]
  MIC: 16 to 64 µg/mL (≈ 41.8 to 167 µM)

## C[C@@H](N)[C@H](NC(=O)c1ccc(C#CC#Cc2cncnc2)cc1)C(=O)NO [Example 89-4]
AECO001 (ATCC25922); [6]
  MIC: 16 to 64 µg/mL (≈ 44 to 176 µM)
AECO001 (ATCC25922); [7]
  MIC: 16 to 64 µg/mL (≈ 44 to 176 µM)
[1]
  MIC: 2 to 16 µg/mL (≈ 5.5 to 44 µM)
APAE001 (ATCC27853)
  MIC: 2 to 16 µg/mL (≈ 5.5 to 44 µM)
[2]
  MIC: < 2 µg/mL
[3]
  MIC APAE006 + PMBN: A (MIC's of 2.0 μg/mL or less = A)
[4]
  MIC: 16 to 64 µg/mL (≈ 44 to 176 µM)
[5]
  MIC: 16 to 64 µg/mL (≈ 44 to 176 µM)

## CC(C)CC#CC#Cc1ccc(C(=O)N[C@H](C(=O)NO)C(C)(C)O)cc1 [Example 91-19]
AECO001 (ATCC25922); [6]
  MIC: < 2 µg/mL
AECO001 (ATCC25922); [7]
  MIC: < 2 µg/mL
[1]
  MIC: < 2 µg/mL
APAE001 (ATCC27853)
  MIC: 2 to 16 µg/mL (≈ 5.61 to 44.9 µM)
[2]
  MIC: < 2 µg/mL
[3]
  MIC APAE006 + PMBN: A (MIC's of 2.0 μg/mL or less = A)
[4]
  MIC: 2 to 16 µg/mL (≈ 5.61 to 44.9 µM)
[5]
  MIC: 16 to 64 µg/mL (≈ 44.9 to 180 µM)

## CC(C)(O)[C@H](NC(=O)c1ccc(C#CC#CC2CC2)cc1)C(=O)NO [Example 91-6]
AECO001 (ATCC25922); [6]
  MIC: < 2 µg/mL
AECO001 (ATCC25922); [7]
  MIC: < 2 µg/mL
[1]
  MIC: < 2 µg/mL
APAE001 (ATCC27853)
  MIC: < 2 µg/mL
[2]
  MIC: < 2 µg/mL
[3]
  MIC APAE006 + PMBN: A (MIC's of 2.0 μg/mL or less = A)
[4]
  MIC: < 2 µg/mL
[5]
  MIC: 16 to 64 µg/mL (≈ 47 to 188 µM)

## CC(C)(N)[C@H](NC(=O)c1ccc(C#Cc2ccc(CNCC(F)F)cc2)cc1)C(=O)NO [Example 122-3]
AECO001 (ATCC25922); [6]
  MIC: < 2 µg/mL
AECO001 (ATCC25922); [7]
  MIC: < 2 µg/mL
[1]
  MIC: < 2 µg/mL
APAE001 (ATCC27853)
  MIC: < 2 µg/mL
[2]
  MIC: < 2 µg/mL
[3]
  MIC APAE006 + PMBN: A (MIC's of 2.0 μg/mL or less = A)
[4]
  MIC: < 2 µg/mL
[5]
  MIC: 16 to 64 µg/mL (≈ 36 to 144 µM)

## CC(C)C#CC#Cc1ccc(C(=O)NC(C(=O)NO)[C@@H](C)N)cc1 (stereo partly shown) [Example 91-13]
AECO001 (ATCC25922); [6]
  MIC: < 2 µg/mL
AECO001 (ATCC25922); [7]
  MIC: 2 to 16 µg/mL (≈ 6.11 to 48.9 µM)
[1]
  MIC: < 2 µg/mL
APAE001 (ATCC27853)
  MIC: < 2 µg/mL
[2]
  MIC: < 2 µg/mL
[3]
  MIC APAE006 + PMBN: A (MIC's of 2.0 μg/mL or less = A)
[4]
  MIC: 2 to 16 µg/mL (≈ 6.11 to 48.9 µM)
[5]
  MIC: 2 to 16 µg/mL (≈ 6.11 to 48.9 µM)

## C[C@@H](N)[C@H](NC(=O)c1ccc(C#CC#Cc2cccs2)cc1)C(=O)NO [Example 88-12]
AECO001 (ATCC25922); [6]
  MIC: < 2 µg/mL
AECO001 (ATCC25922); [7]
  MIC: 2 to 16 µg/mL (≈ 5.44 to 43.5 µM)
[1]
  MIC: < 2 µg/mL
APAE001 (ATCC27853)
  MIC: < 2 µg/mL
[2]
  MIC: < 2 µg/mL
[3]
  MIC APAE006 + PMBN: A (MIC's of 2.0 μg/mL or less = A)
[4]
  MIC: < 2 µg/mL
[5]
  MIC: 2 to 16 µg/mL (≈ 5.44 to 43.5 µM)

## CC(C)CCC#CC#Cc1ccc(C(=O)N[C@H](C(=O)NO)[C@@H](C)N)cc1 [Example 91-28]
AECO001 (ATCC25922); [6]
  MIC: < 2 µg/mL
AECO001 (ATCC25922); [7]
  MIC: 2 to 16 µg/mL (≈ 5.63 to 45 µM)
[1]
  MIC: < 2 µg/mL
APAE001 (ATCC27853)
  MIC: 2 to 16 µg/mL (≈ 5.63 to 45 µM)
[2]
  MIC: < 2 µg/mL
[3]
  MIC APAE006 + PMBN: A (MIC's of 2.0 μg/mL or less = A)
[4]
  MIC: 2 to 16 µg/mL (≈ 5.63 to 45 µM)
[5]
  MIC: 2 to 16 µg/mL (≈ 5.63 to 45 µM)
